Test system: HepG2 cells
Test: LC-MS/MS targeted intracellular metabolomics
Assay type: cell-based, human
Conditions: Suppl Fig 9; C3 (EC15 ATP), 48 h; Bezafibrate lines = Plates 1-6 in order
Summary of the method: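 Metabolites extracted in-plate from HepG2 cells with 80% isopropanol and analysed by RP and HILIC LC-MS/MS in positive and negative mode. Data normalised to lyophilised untreated HepG2 reference samples and to each sample's median across 221 metabolites. Treated versus control compared by Welch t test on log-transformed data.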

Cc1cccc(Nc2cc(Cl)nc(SCC(=O)O)n2)c1C [Wy-14643]
2'-Deoxycytidine level vs controls: 0.75 | 5-Hydroxytryptophan level vs controls: 0.85 | Carnitine level vs controls: 0.99 | Ceramide (d18:1.C20:0) level vs controls: 0.66 | Ceramide (d18:1.C24:1) level vs controls: 0.92 | Ceramide (d18:1.C24:2) level vs controls: 0.71 | Ceramide (d18:2.C24:1) level vs controls: 0.97 | Choline plasmalogen (C36:4) level vs controls: 1.00 | Choline plasmalogen (C36:5) level vs controls: 1.03 | Creatine level vs controls: 0.85 | Glycerol-3-phosphate level vs controls: 0.72 | Hexanoylcarnitine level vs controls: 0.93 | Ketoleucine level vs controls: 0.86 | Lysophosphatidylcholine (C14:0) level vs controls: 1.51 | Lysophosphatidylcholine (C16:0) level vs controls: 1.26 | Lysophosphatidylcholine (C16:1) level vs controls: 1.06 | Lysophosphatidylcholine (C20:4) level vs controls: 1.28 | Lysophosphatidylcholine (C24:0) level vs controls: 1.50 | Lysophosphatidylcholine (C24:1) level vs controls: 1.20 | Lysophosphatidylethanolamine (C16:0) level vs controls: 1.18 | Lysophosphatidylethanolamine (C18:0) level vs controls: 1.26 | Lysophosphatidylethanolamine (C18:1) level vs controls: 1.12 | N-Acetylaspartate level vs controls: 1.22 | Pantothenic acid level vs controls: 0.74 | Phosphatidylcholine (C32:0) level vs controls: 0.81 | Phosphatidylcholine (C34:1) level vs controls: 0.91 | Phosphatidylcholine (C34:3) level vs controls: 1.04 | Phosphatidylcholine (C36:1) level vs controls: 0.96 | Phosphatidylcholine (C36:2) level vs controls: 0.86 | Phosphatidylcholine (C36:3) level vs controls: 0.93 | Phosphatidylcholine (C36:4) level vs controls: 0.98 | Phosphatidylcholine (C36:5) level vs controls: 0.92 | Phosphatidylethanolamine (C36:3) level vs controls: 0.82 | Phosphatidylethanolamine (C38:3) level vs controls: 0.92 | Phosphatidylethanolamine (C38:5) level vs controls: 0.89 | Phosphatidylethanolamine (C38:6) level vs controls: 0.96 | Phosphatidylethanolamine (C40:7) level vs controls: 0.92 | Phosphocholine level vs controls: 0.91 | Propionylcarnitine level vs controls: 0.97 | S-Adenosylhomocysteine level vs controls: 1.03 | Sphingomyelin (d32:2) level vs controls: 0.79 | Sphingomyelin (d33:1) level vs controls: 1.13 | Sphingomyelin (d34:0) level vs controls: 1.04 | Sphingomyelin (d35:1) level vs controls: 0.99 | Sphingomyelin (d36:1) level vs controls: 0.90 | Sphingomyelin (d36:2) level vs controls: 0.97 | Sphingomyelin (d37:1) level vs controls: 0.81 | Sphingomyelin (d38:1) level vs controls: 0.84 | Sphingomyelin (d38:2) level vs controls: 0.74 | Sphingomyelin (d39:1) level vs controls: 0.94 | Sphingomyelin (d40:2) level vs controls: 0.81 | Sphingomyelin (d41:2) level vs controls: 0.79 | Sphingomyelin (d42:2) level vs controls: 0.79 | Taurine level vs controls: 0.97 | Triacylglycerol (C34:1.C18:3) level vs controls: 1.01 | Triacylglycerol (C34:2.C18:0) level vs controls: 1.14 | Triacylglycerol (C34:2.C18:1) level vs controls: 1.01 | Triacylglycerol (C36:4.C16:0) level vs controls: 1.09 | Triacylglycerol (C36:4.C18:0) level vs controls: 1.18

From PMC10693528, “A high-throughput metabolomics in vitro platform for the characterization of hepatotoxicity” (Cell Biology and Toxicology, 2023)
